This note sets out measurements from US9593149B2, “Amylin and calcitonin receptor agonist” (Novo Nordisk A/S, priority 2014, dated 2017).

A short description of the data set: Assay (IV) determination of solubility. The format is physicochemical. The protocol: Assay (IV)—Determination of Solubility
The mimylin peptide was dissolved in water at ˜500 nmol/ml and mixed 1:1 with a series of buffers (100 mM glycylglycine pH 3.0, 100 mM glycylglycine pH 4.0, 100 mM glycylglycine pH 5.0, 100 mM bistrispropane pH 6.0, 100 mM bistrispropane pH 6.5, 100 mM bistrispropane pH 7.0, 100 mM bistrispropane pH 7.5, 100 mM bistrispropane pH 8.0).

Values after ≈ are worked out from the molar mass of the structure shown. Numbered stars: 1 amine (or outer) side, 2 acyl side, 3 side chain; on linkers, the order of the positions; unused ones are H or OH. Peptide text beside a SMILES is read from it. * marks the point of attachment. C20 diacid = O=C(O)CCCCCCCCCCCCCCCCCCC(=O)*; C18 diacid = O=C(O)CCCCCCCCCCCCCCCCC(=O)*; γGlu = O=C(O)[C@H](CCC(=O)[*:2])N[*:1]; AEEA = NCCOCCOCC(=O)O

In the case of `CC(C)C[C@H](NC(=O)[C@H](C)NC(=O)[C@H](C)NC(=O)[C@@H](NC(=O)[C@H](CO)NC(=O)[C@H](CC(C)C)NC(=O)[C@H](CCC(=O)O)NC(=O)[C@H](CO)NC(=O)[C@H](C)NC(=O)CC[C@H](NC(=O)CCCCCCCCCCCCCCCCCCC(=O)O)C(=O)O)[C@@H](C)O)C(=O)NCC(=O)N[C@@H](CCCCN)C(=O)N[C@@H](CC(C)C)C(=O)N[C@@H](CO)C(=O)N[C@@H](C)C(=O)N[C@@H](CCC(=O)O)C(=O)N[C@@H](CC(C)C)C(=O)N[C@@H](Cc1cnc[nH]1)C(=O)N[C@@H](CCC(=O)O)C(=O)N[C@@H](CC(C)C)C(=O)N[C@@H](C)C(=O)N[C@H](C(=O)N[C@@H](Cc1ccc(O)cc1)C(=O)N1CCC[C@H]1C(=O)N[C@@H](CCCCN)C(=O)N[C@H](C(=O)N[C@@H](CCC(=O)O)C(=O)N[C@H](C(=O)NCC(=O)N[C@@H](CO)C(=O)NCC(=O)N[C@@H](CO)C(=O)N[C@@H](Cc1ccc(O)cc1)C(N)=O)[C@@H](C)O)[C@@H](C)O)[C@@H](C)O` [compound 101, [N-terminal(C20 diacid-gGlu), des1, 12K, 23Y, 25K, 30S, 31G, 33Y]mimylin] ({C20 diacid-γGlu}-ASELSTAALGKLSAELHELATYPKTETGSGSY-NH2), the Solubility entry (pH 3.0) is “≧200 μM”; the Solubility entry (pH 4.0) is “≧200 μM”; the Solubility entry (pH 5.0) is listed as “≧200 μM”; the Solubility result (pH 6.0) is listed as “≧200 μM”; the Solubility entry (pH 6.5) is “≧200 μM”; the Solubility result (pH 7.0) was “≧200 μM”. In addition, the Solubility entry was “≧200 μM” (pH 7.5) and “≧200 μM” (pH 8.0).
In the case of `CC(C)C[C@H](NC(=O)[C@H](C)NC(=O)[C@H](C)NC(=O)[C@@H](NC(=O)[C@H](CO)NC(=O)[C@H](CC(C)C)NC(=O)[C@H](CCC(=O)O)NC(=O)[C@H](CO)NC(=O)[C@H](C)NC(=O)COCCOCCNC(=O)COCCOCCNC(=O)COCCOCCNC(=O)CC[C@H](NC(=O)CCCCCCCCCCCCCCCCCCC(=O)O)C(=O)O)[C@@H](C)O)C(=O)NCC(=O)N[C@@H](CCCNC(=N)N)C(=O)N[C@@H](CC(C)C)C(=O)N[C@@H](CO)C(=O)N[C@@H](C)C(=O)N[C@@H](CCC(=O)O)C(=O)N[C@@H](CC(C)C)C(=O)N[C@@H](Cc1cnc[nH]1)C(=O)N[C@@H](CCC(=O)O)C(=O)N[C@@H](CC(C)C)C(=O)N[C@@H](C)C(=O)N[C@H](C(=O)N[C@@H](CC(C)C)C(=O)N1CCC[C@H]1C(=O)N[C@@H](CCCNC(=N)N)C(=O)N[C@H](C(=O)N[C@@H](CCC(=O)O)C(=O)N[C@H](C(=O)NCC(=O)N[C@@H](CO)C(=O)NCC(=O)N[C@@H](CO)C(=O)N1CCC[C@H]1C(N)=O)[C@@H](C)O)[C@@H](C)O)[C@@H](C)O` [compound 43, [N-terminal(C20 diacid-gGlu-3xOEG), des1, 30S, 31G]mimylin] ({C20 diacid-γGlu-AEEA-AEEA-AEEA}-ASELSTAALGRLSAELHELATLPRTETGSGSP-NH2), the Solubility entry is on record as “≧200 μM” (pH 3.0); “≧200 μM” (pH 4.0); “≧200 μM” (pH 5.0); “≧200 μM” (pH 6.0); “≧200 μM” (pH 6.5); “≧200 μM” (pH 7.0). The Solubility result is, setting by setting: (pH 7.5) “≧200 μM”; (pH 8.0) “≧200 μM”.
Take `CC(C)C[C@H](NC(=O)CNC(=O)[C@H](CO)NC(=O)[C@H](C)NC(=O)CC[C@H](NC(=O)CCCCCCCCCCCCCCCCCCC(=O)O)C(=O)O)C(=O)N[C@@H](CO)C(=O)N[C@H](C(=O)N[C@@H](C)C(=O)N[C@@H](C)C(=O)N[C@@H](CC(C)C)C(=O)NCC(=O)N[C@@H](CCCNC(=N)N)C(=O)N[C@@H](CC(C)C)C(=O)N[C@@H](CO)C(=O)N[C@@H](C)C(=O)N[C@@H](CCC(=O)O)C(=O)N[C@@H](CC(C)C)C(=O)N[C@@H](Cc1cnc[nH]1)C(=O)N[C@@H](CCC(=O)O)C(=O)N[C@@H](CC(C)C)C(=O)N[C@@H](C)C(=O)N[C@H](C(=O)N[C@@H](Cc1ccc(O)cc1)C(=O)N1CCC[C@H]1C(=O)N[C@@H](CCCNC(=N)N)C(=O)N[C@H](C(=O)N[C@@H](CCC(=O)O)C(=O)N[C@H](C(=O)NCC(=O)N[C@@H](CO)C(=O)NCC(=O)N[C@@H](CO)C(=O)N1CCC[C@H]1C(N)=O)[C@@H](C)O)[C@@H](C)O)[C@@H](C)O)[C@@H](C)O` [compound 79, [N-terminal(C20 diacid-gGlu), des1, 4G, 23Y, 30S, 31G]mimylin] ({C20 diacid-γGlu}-ASGLSTAALGRLSAELHELATYPRTETGSGSP-NH2): the Solubility result reads like this: (pH 3.0) “≧200 μM”; (pH 4.0) “≧200 μM”; (pH 5.0) “≧200 μM”; (pH 6.0) “≧200 μM”; (pH 6.5) “≧200 μM”; (pH 7.0) “≧200 μM”. The Solubility entry is “≧200 μM” (pH 7.5) and “≧200 μM” (pH 8.0).
Consider `CC(C)C[C@H](NC(=O)[C@H](CCC(=O)O)NC(=O)[C@H](C)NC(=O)[C@H](CO)NC(=O)[C@H](CC(C)C)NC(=O)[C@H](CCCNC(=N)N)NC(=O)CNC(=O)[C@H](CC(C)C)NC(=O)[C@@H](NC(=O)[C@H](C)NC(=O)[C@@H](NC(=O)[C@H](CO)NC(=O)[C@H](CC(C)C)NC(=O)[C@H](CCC(=O)O)NC(=O)[C@H](CO)NC(=O)[C@H](C)NC(=O)[C@H](CCC(=O)O)NC(=O)CCCCCCCCCCCCCCCCC(=O)O)[C@@H](C)O)C(C)C)C(=O)N[C@@H](C)C(=O)N[C@@H](CCC(=O)O)C(=O)N[C@@H](CC(C)C)C(=O)N[C@@H](C)C(=O)N[C@H](C(=O)N[C@@H](CC(C)C)C(=O)N1CCC[C@H]1C(=O)N[C@@H](CCCNC(=N)N)C(=O)N[C@H](C(=O)N[C@@H](CCC(=O)O)C(=O)N[C@H](C(=O)NCC(=O)N1CCC[C@H]1C(=O)N[C@@H](CCC(=O)O)C(=O)N[C@@H](CO)C(=O)N1CCC[C@H]1C(N)=O)[C@@H](C)O)[C@@H](C)O)[C@@H](C)O` [compound 33, [N-terminal(C18 diacid), 9V, 18A]mimylin] ({C18 diacid}-EASELSTAVLGRLSAELAELATLPRTETGPESP-NH2), for which the Solubility entry (pH 3.0) is reported as “≧200 μM”; the Solubility entry (pH 5.0) is listed as “≧200 μM”; the Solubility result (pH 6.0) is “≧200 μM”; the Solubility result (pH 6.5) is reported as “≧200 μM”; the Solubility result (pH 7.0) is on record as “≧200 μM”; the Solubility entry (pH 7.5) is “≧200 μM”. The Solubility entry (pH 8.0) is listed as “≧200 μM”. Further, the solubility at 18 h (pH 4.0) is reported as 1 µM (≈ 3.69 µg/mL).

As a reminder, the solubility is the dissolved amount per volume that the medium holds.
